Results on one compound are retold here after ChEMBL document CHEMBL6103588, “Promising thiazolidinedione-thiazole based multi-target and neuroprotective hybrids for Alzheimer's disease: Design, synthesis, in-vitro, in-vivo and in-silico studies” (Eur J Med Chem, 2025).

A value given as a limit tells only on which side of the number the result lay.

The nature of data set [1]: Acute toxicity in male Swiss albino mouse assessed as mortality rate at 1500 mg/kg BW, po administered as single dose via gavage measured after 48 hrs by up-and-down method relative to control. The data set is classed as organism-based. Conditions: in vivo; call rule not given here.
Data set [2] is described as follows: Acute toxicity in male Swiss albino mouse assessed as mortality treated po single dose via gavage measured after 48 hrs by up-and-down method. Conditions: in vivo. The data set is classed as organism-based.
Data set [3] addresses Prostaglandin G/H synthase 1 (Homo sapiens, UniProt P23219). Conditions: read-out: IC50.
Data set [4] deals with T1, Amine oxidase [flavin-containing] A (Homo sapiens, UniProt P21397).
T1 sequence (P21397 whole entry): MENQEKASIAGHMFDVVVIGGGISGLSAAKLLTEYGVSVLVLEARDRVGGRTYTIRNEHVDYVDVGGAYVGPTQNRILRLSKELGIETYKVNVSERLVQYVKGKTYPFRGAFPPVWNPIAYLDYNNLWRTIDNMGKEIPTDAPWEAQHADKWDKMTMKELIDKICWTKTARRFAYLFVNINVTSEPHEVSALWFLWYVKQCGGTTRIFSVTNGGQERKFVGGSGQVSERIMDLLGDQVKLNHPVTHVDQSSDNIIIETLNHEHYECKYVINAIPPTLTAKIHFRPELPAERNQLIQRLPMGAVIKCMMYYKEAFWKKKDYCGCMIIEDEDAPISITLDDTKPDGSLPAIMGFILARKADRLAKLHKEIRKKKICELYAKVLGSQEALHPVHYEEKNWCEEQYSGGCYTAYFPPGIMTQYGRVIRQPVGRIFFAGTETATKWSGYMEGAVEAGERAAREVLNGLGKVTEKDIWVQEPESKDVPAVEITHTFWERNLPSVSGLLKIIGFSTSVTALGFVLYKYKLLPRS
As to the kind of experiment: Inhibition of human MAO-A using tyramine/benzylamine as substrate measured after 30 mins by fluorometric assay. Conditions: read-out: IC50.

Data set [5] deals with T2, Polyunsaturated fatty acid 5-lipoxygenase (Homo sapiens, UniProt P09917).
T2 sequence (P09917 whole entry): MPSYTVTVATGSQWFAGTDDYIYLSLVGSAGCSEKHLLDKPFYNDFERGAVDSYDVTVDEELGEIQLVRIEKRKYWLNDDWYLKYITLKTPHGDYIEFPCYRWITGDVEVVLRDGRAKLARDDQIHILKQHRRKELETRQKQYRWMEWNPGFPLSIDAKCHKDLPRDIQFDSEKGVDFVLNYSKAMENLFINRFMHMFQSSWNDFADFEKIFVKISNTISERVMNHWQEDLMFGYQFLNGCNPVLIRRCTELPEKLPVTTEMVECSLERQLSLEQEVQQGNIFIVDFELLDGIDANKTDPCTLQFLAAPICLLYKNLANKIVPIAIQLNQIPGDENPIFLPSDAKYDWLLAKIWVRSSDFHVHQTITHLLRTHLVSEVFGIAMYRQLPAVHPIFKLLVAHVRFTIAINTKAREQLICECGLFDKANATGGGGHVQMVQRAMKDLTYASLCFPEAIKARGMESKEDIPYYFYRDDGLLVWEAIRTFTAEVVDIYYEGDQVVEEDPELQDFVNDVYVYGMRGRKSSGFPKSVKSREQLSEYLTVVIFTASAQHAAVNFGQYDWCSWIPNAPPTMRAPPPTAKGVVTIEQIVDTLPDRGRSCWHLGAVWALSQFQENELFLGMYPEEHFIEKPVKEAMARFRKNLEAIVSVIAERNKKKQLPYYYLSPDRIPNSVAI
As to the kind of experiment: Inhibition of 5-LOX (unknown origin) using linoleic acid as substrate incubated for 5 mins followed by substrate addition.

Data set [6] addresses Acetylcholinesterase (Electrophorus electricus) (UniProt O42275). As to the kind of experiment: Mixed-type inhibition of electric eel AChE using acetylthiocholine iodide as substrate assessed as decrease in Vmax […] at 0.036 to 0.144 uM preincubated for 15 mins by Lineweaver-burk plot analysis. The conditions noted are these: dose 0.036-0.144 µM.
The nature of data set [7]: Neurotoxicity against human SH-SY5Y cells assessed as reduction in cell viability at 100 uM incubated for 24 hrs by MTT assay relative to control. The data set is classed as toxicity, cell-based.
A short description of data set [8]: Neurotoxicity against human SH-SY5Y cells assessed as reduction in cell viability at 100 uM incubated for 24 hrs by MTT assay. The data set is classed as toxicity, cell-based. In general terms: Tetrazolium assays rely on reduction of a dye to a coloured formazan, in cell work by metabolically active cells.
The subject of a further data set is PC-12. Put plainly: Neuroprotective activity against H2O2-induced rat PC12 cells assessed as protection against H2O2-induced oxidative stress by measuring cell viability at 25 uM pretreated for 24 hr followed by H2O2 addition and measured after 24 hrs by MTT reagent based spectrophotometric analysis (reference value: 47.32 %). In kind it is functional. Conditions: time 48 hrs.

Data set [9] is described as follows: Acute toxicity in male Swiss albino mouse assessed as signs of discomfort at 1200 mg/kg BW, po administered as single dose via gavage measured after 20 mins by up-and-down method. In kind it is organism-based. Conditions: in vivo.
A short description of data set [10]: Acute toxicity in male Swiss albino mouse assessed as ataxia at 1200 mg/kg BW, po administered as single dose via gavage measured after 20 mins by up-and-down method. The data set is classed as organism-based. The conditions noted are these: in vivo.
A short description of data set [11]: Acute toxicity in male Swiss albino mouse assessed as lethargy at 1200 mg/kg BW, po administered as single dose via gavage measured after 20 mins by up-and-down method. The data set is classed as organism-based. Conditions: in vivo.
Data set [12] is described as follows: Acute toxicity in male Swiss albino mouse assessed as seizures at 1200 mg/kg BW, po administered as single dose via gavage measured after 20 mins by up-and-down method. In kind it is organism-based. The conditions noted are these: in vivo.
Data set [13] in a line: Acute toxicity in male Swiss albino mouse assessed as ataxia at 450 mg/kg BW, po administered as single dose via gavage measured after 1 hrs by up-and-down method. In kind it is organism-based. The conditions noted are these: in vivo.
The nature of data set [14]: Acute toxicity in male Swiss albino mouse assessed as survival time at 1500 mg/kg BW, po administered as single dose via gavage by up-and-down method. In kind it is organism-based. Conditions: in vivo.
Data set [15] in a line: Acute toxicity in male Swiss albino mouse assessed as survival time at 1200 mg/kg BW, po administered as single dose via gavage by up-and-down method. The data set is classed as organism-based. The conditions noted are these: in vivo.
The nature of data set [16]: Acute toxicity in male Swiss albino mouse assessed as survival time at 900 mg/kg BW, po administered as single dose via gavage by up-and-down method. In kind it is organism-based. Conditions: in vivo.
A short description of data set [17]: Acute toxicity in male Swiss albino mouse assessed as survival time at 650 mg/kg BW, po administered as single dose via gavage by up-and-down method. The conditions noted are these: in vivo. In kind it is organism-based.
The nature of data set [18]: Acute toxicity in male Swiss albino mouse assessed as survival time at 450 mg/kg BW, po administered as single dose via gavage by up-and-down method. The data set is classed as organism-based. Conditions: in vivo.
Data set [19] in a line: Acute toxicity in male Swiss albino mouse assessed as survival time at 250 mg/kg BW, po administered as single dose via gavage by up-and-down method. The conditions noted are these: in vivo. In kind it is organism-based.
Data set [20] is described as follows: Acute toxicity in male Swiss albino mouse assessed as mortality rate at 1200 mg/kg BW, po administered as single dose via gavage measured after 48 hrs by up-and-down method relative to control. The data set is classed as organism-based. The conditions noted are these: in vivo.
A short description of data set [21]: Acute toxicity in male Swiss albino mouse assessed as mortality rate at 650 mg/kg BW, po administered as single dose via gavage measured after 48 hrs by up-and-down method relative to control. In kind it is organism-based. The conditions noted are these: in vivo.

Sequence of Acetylcholinesterase (Electrophorus electricus) (O42275 24-633 limits assumed): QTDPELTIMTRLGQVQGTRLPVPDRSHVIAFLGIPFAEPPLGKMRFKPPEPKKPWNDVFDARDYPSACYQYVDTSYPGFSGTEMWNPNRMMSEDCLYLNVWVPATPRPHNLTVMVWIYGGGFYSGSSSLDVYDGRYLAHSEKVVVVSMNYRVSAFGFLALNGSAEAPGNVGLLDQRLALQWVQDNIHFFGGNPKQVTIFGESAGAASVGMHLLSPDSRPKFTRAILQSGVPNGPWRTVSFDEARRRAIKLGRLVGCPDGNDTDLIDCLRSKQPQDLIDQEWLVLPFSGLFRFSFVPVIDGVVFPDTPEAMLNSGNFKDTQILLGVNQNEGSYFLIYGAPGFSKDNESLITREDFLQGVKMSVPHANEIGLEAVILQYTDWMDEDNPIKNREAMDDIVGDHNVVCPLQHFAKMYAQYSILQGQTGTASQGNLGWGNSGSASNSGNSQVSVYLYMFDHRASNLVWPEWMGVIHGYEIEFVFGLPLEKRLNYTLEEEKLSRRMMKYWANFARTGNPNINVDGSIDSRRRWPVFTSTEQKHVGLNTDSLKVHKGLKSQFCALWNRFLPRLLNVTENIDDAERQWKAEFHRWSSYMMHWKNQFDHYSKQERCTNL
Sequence of Prostaglandin G/H synthase 1 (P23219 whole entry): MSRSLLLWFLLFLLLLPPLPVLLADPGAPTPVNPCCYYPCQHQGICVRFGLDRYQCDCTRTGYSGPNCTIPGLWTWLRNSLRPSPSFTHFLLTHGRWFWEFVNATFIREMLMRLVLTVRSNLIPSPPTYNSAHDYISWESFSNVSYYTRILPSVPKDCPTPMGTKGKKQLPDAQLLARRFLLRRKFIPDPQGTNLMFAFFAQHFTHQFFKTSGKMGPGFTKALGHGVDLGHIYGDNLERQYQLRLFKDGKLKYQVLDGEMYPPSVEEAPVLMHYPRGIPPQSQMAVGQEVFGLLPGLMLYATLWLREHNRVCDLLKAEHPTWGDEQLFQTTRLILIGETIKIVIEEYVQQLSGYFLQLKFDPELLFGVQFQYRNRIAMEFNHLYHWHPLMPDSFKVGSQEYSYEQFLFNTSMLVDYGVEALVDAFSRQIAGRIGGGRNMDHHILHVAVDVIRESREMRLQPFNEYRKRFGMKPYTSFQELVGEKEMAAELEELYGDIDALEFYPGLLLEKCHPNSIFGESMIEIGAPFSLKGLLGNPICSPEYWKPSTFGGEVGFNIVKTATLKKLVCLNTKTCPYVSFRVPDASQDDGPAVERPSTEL

On to `COc1cc(/C=C/C(=O)Nc2ccc3sc(NCN4C(=O)CSC4=O)nc3c2)ccc1O`, for which the figures for the mortality at 48 h in [1], in data set [20] and in data set [21] were 100%, 80% and 28.6%, respectively. The LD100 in data set [2] (po, 48 h) stood at 1500 mg/kg. Further, the LD50 at 48 h in data set [2] (male, Swiss albino) was determined as 800 mg/kg. In addition, the IC50 in data set [3] was determined as 60.4 µM; in [4], 14.5 µM; in data set [5], 0.18 µM. In addition, the inhibition entry in data set [6] is listed as “Active; Inhibition Of Free Enzyme And Enzyme-Substrate Complex”. The Activity in data set [7] was 76%; in [8] it was “Toxic”; in the data set on PC-12, 83.01%; in data set [9] it was “Toxic”; in data set [10], “Toxic”; in [11] it was “Toxic”. Also, the Activity result in data set [12] and in data set [13] was “Toxic” in each case. Also, the Time in [14] was 15 min; in data set [15] it was 40 min; in [16] it was 2 h; in data set [17] it was 18 h; in [18], > 48 h; in data set [19], > 48 h.

A word on the mortality: it is the share of the test organisms that died. One may read the LD50 as the dose expected to kill half of the subjects tested. What is called IC50 is the point on the concentration scale where inhibition reaches its midpoint.
